Measured values from patent US10300004B2, “Cosmetic composition for preventing or ameliorating skin damage caused by ultraviolet light” (CUSKIN CO., LTD, priority 2015, dated 2019).

Experiments:
[1] = system: human epidermis; settings: Placzek M et al. 2005; cited from earlier work
[2] = system: Human dermal fibroblasts (HDFs); test: MTT viability of dermal fibroblasts under UVB irradiation; format: cell-based
Protocol: (§1) Human dermal fibroblasts (HDFs) and immortalized keratinocyte cell line (HaCaT) were cultured using DMEM (low, high glucose, Hyclone, Thermo Scientific, Logan, Utah, USA) supplemented with 10% FBS (Gibco, Invitrogen, Carlsbad, Calif., USA), 1% penicillin, and streptomycin (Gibco) at 37° C. with 5% CO2 in a humidified atmosphere (Kim W S et al., (2009) Journal of dermatological science 53: 96-102). Said cultures were performed by exchanging with fresh media every two days.
(§2) HDFs (3×10^4 cells/well) and HaCaT (4×10^4 cells/well) were seeded in 6-well plates. Cells were treated with various concentrations of MVE. Cells were then incubated for 48 hours and the MTT assay was performed. MTT solution (5 mg/ml in phosphate buffered saline) was added to each well at 1/20 of the media volume, incubated for 2 hours, and then supernatant was removed. Dimethyl sulfoxide (DMSO) was then added to dissolve formazan crystals, and the absorbance was measured at 595 nm using an ELISA reader (TECAN, Grodig, Austria).

[3] = system: fibroblasts; test: Cellular ROS generation assay (DCF-DA) in fibroblasts; format: cell-based, Human; settings: UVB, MVE 1000 nM, p<0.01, FIG. 3a
Protocol: (§3) Cellular ROS generation was measured using 2′,7′-dichlorodihydrofluorescein diacetate (DCF-DA, Molecular Probes, Eugene, Oreg., USA), as described previously (Hye Kim J et al., Stem cells 33: 542-556). Similarly, mitochondrial ROS (mtROS) generation was measured using Mito-Sox (Molecular Probes). Cells were seeded in 6-well plates in 0.2% FBS and cultured overnight. […] Each well was imaged every 10 minutes for 40 minutes under standard incubation conditions using an IncuCyte™ ZOOM microscope placed inside an incubator. Image-based analysis of fluorescence intensity was carried out using IncuCyte™ software (Essen Bioscience, MI, USA).

[4] = system: fibroblasts; test: Mitochondrial ROS generation assay (Mito-Sox) in fibroblasts; format: cell-based, Human; settings: UVB, MVE 1000 nM, p<0.01, FIG. 3b
Protocol: as §3

[5] = system: Human dermal fibroblasts (HDFs); test: MTT proliferation assay in dermal fibroblasts; format: cell-based; settings: 100~1000 nM; p<0.01; FIG. 1B
Protocol: as §1, §2

[6] = system: p53; test: p53 protein levels in HaCaT cells after UVB; format: cell-based, Human; settings: FIG. 4C
[7] = system: matrix metalloproteinase 1 (MMP1); test: Western blot of MMP1 protein in fibroblasts; format: cell-based, Human; settings: FIG. 2C
Protocol: (§4) Cells (2×10^5 cells/ml) were seeded in a 60 mm dish and cultured to 80% confluence. Cells were treated with MVE. Cells were then lysed with 1×RIPA buffer (50 mM Tris-HCl, 0.15 M NaCl, 1 mM EDTA, 1% Triton-X100, pH 7.4, 1% SDS, 50 mM NaF, 1 mM Na3VO4, 5 mM Dithiothreitol, 1 mg/ml Leupeptin, and 1 mM phenylmethylsulfonyl fluoride). Sample protein (40 μg) was separated in 10-12% SDS-polyacrylamide gels by electrophoresis. Proteins were transferred to PVDF membranes and incubated with antibodies to collagen (1:1000 rabbit source, Santa Cruz Biotechnology, Santa Cruz, Calif., USA) and matrix metalloproteinase 1 (MMP1, 1:1000 rabbit source, Santa Cruz Biotechnology). Membranes were then washed and incubated with horseradish peroxidase-conjugated anti-rabbit IgG antibody (Santa Cruz Biotechnology). Blots were reacted with western reagent (ECL; Millipore Billerica, Ann Arbor, Mass., USA) and exposed to X-ray film.

[8] = system: HaCaT cells; test: MTT proliferation assay in HaCaT cells; format: cell-based, Human; settings: dose-dependent; p<0.05; FIG. 4A
Protocol: as §1, §2

[9] = system: matrix metalloproteinase 1 (MMP1); test: RT-PCR of MMP1 mRNA in dermal fibroblasts; format: cell-based, Human
Protocol: (§5) Total RNA of HDFs and HaCaT was extracted with Trizol reagent followed by reverse transcription to cDNA. The following oligonucleotides were used as primers: collagen type I [5′-[…]-3′ (SEQ ID NO: 1) and 5′-[…]-3′ (SEQ ID NO: 2)], MMP-1 [5′-[…]-3′ (SEQ ID NO: 3) and 5′-[…]-3′ (SEQ ID NO: 4)], and control GAPDH [5′-[…]-3′ (SEQ ID NO: 5) and 5′-[…]-3′ (SEQ ID NO: 6)]. PCR was carried out in a total volume of 30 μl for PCR amplification of cDNA that was reverse-transcribed from the total RNA. After initial denaturation at 95° C. for 5 minutes, amplification was performed in 35 cycles for 30 seconds at 95° C., 20 seconds at 54° C., and 30 seconds at 72° C. This was followed by a final extension at 72° C. for another 10 minutes. GAPDH mRNA level was used for sample standardization.

[10] = system: HaCaT cells; test: Mitochondrial ROS generation assay (Mito-Sox) in HaCaT cells; format: cell-based, Human; settings: UVB, MVE 1000 nM, p<0.01, FIG. 5b
Protocol: as §3

[11] = system: collagen; test: Western blot of collagen protein in fibroblasts; format: cell-based, Human; settings: FIG. 2C
Protocol: as §4

[12] = system: collagen type I; test: RT-PCR of collagen mRNA in dermal fibroblasts; format: cell-based, Human
Protocol: as §5

[13] = system: HaCaT cells; test: Cellular ROS generation assay (DCF-DA) in HaCaT cells; format: cell-based, Human; settings: UVB, MVE 1000 nM, p<0.01, FIG. 5a
Protocol: as §3

[14] = system: HaCaT cells; test: MTT viability of HaCaT cells under UVB; format: cell-based, Human; settings: p<0.01, FIG. 4B
Protocol: as §1, §2

[15] = system: HaCaT keratinocytes; settings: Shibata A et al. 2010; cited from earlier work
[16] = dermal fibroblasts, no UVB, FIG. 2A

Cc1c(C)c2c(c(C)c1O)CC[C@@](C)(CCC[C@H](C)CCC[C@H](C)CCCC(C)C)O2 [D-alpha-tocopherol]
UVB-induced DNA damage [1]: prevented

Cc1c(C)c2c(c(C)c1O)CCC(C)(CC[P+](c1ccccc1)(c1ccccc1)c1ccccc1)O2.[Br-] (centres unmarked) [MVE]
protection of fibroblasts from UVB ([2]; 10~1000 nM, p<0.01, FIG. 1C): protected | fibroblast survival (UVB irradiation), low concentrations ([2]; UVB 200 mJ, 0.1 and 1 μM, concentration-dependent, FIG. 1A): increased | fibroblast survival (UVB irradiation), high concentrations ([2]; UVB 200 mJ, 10 to 100 μM, concentration-dependent, FIG. 1A): decreased | cytosolic ROS level: fluorescent signal intensity of DCF-DA [3]: attenuated | mitochondria ROS production: signal intensity of mito-Sox [4]: reduced | fibroblast proliferation [5]: increased | UVB-induced p53 protein levels [6]: reduced | protein level of MMP1 [7]: altered | proliferation of HaCaT cells [8]: significantly increased | MMP1 mRNA expression [9, 16]: down-regulated | mRNA level of MMP1 increased by UVB ([9]; fibroblasts with UVB, FIG. 2B): reduced | mitochondrial ROS production: signal intensity of mito-Sox [10]: reduced | protein level of collagen [11]: altered | collagen mRNA expression [12, 16]: increased | mRNA level of collagen reduced by UVB irradiation ([12]; fibroblasts with UVB, FIG. 2B): attenuated | cytosolic ROS level: fluorescent signal intensity of DCF-DA [13]: attenuated | UVB-reduced cell viability [14]: increased

CC(C)=CCC/C(C)=C/CC/C(C)=C/CC[C@]1(C)CCc2cc(O)c(C)c(C)c2O1 [γ-tocotrienol]
protection from UVB induced inflammation [15]: protected

vitamin E [reference compound]
survival of dermal fibroblasts from UVB irradiation ([2]; UVB 200 mJ, 0.1 to 100 μM, FIG. 1A): slightly increased
